Test results published in ChEMBL document CHEMBL4665663, “Anti-atherosclerosis effect of HS donors based on nicotinic acid and chlorfibrate structures” (Bioorg Med Chem, 2019).
Each block holds one molecule with its values, some of them ahead of it. The source made the active and inactive calls. The calls are words filed in the database; no cut-off is given here.

What was measured:
RAW264.7 [1] = experiment: Anti-atherosclerotic activity in mouse RAW264.7 cells assessed as decrease in ox-LDL induced intracellular lipid accumulation by measuring reduction in total cholesterol level at 10 to 50 uM preincubated for 10 mins followed by ox-LDL stimulation and measured after 24 hrs by colorimetric method; type: functional, cell-based; settings: dose microM 10-50, time 10.0 min
RAW264.7 [2] = experiment: Anti-atherosclerotic activity in mouse RAW264.7 cells assessed as decrease in ox-LDL induced intracellular lipid accumulation by measuring reduction in free cholesterol level at 10 to 50 uM preincubated for 10 mins followed by ox-LDL stimulation and measured after 24 hrs by colorimetric method; type: functional, cell-based; settings: dose microM 10-50, time 10.0 min
RAW264.7 [3] = experiment: Antioxidant activity in mouse RAW264.7 cells assessed as reduction in ox-LDL induced ROS accumulation at 10 uM preincubated for 10 mins followed by ox-LDL stimulation and measured after 24 hrs by DCFH-DA staining based fluorescence microscopic analysis; type: functional, cell-based
RAW264.7 [4] = experiment: Antioxidant activity in mouse RAW264.7 cells assessed as reduction in ox-LDL induced oxidative stress by measuring decrease in MDA level at 10 to 50 uM preincubated for 10 mins followed by ox-LDL stimulation and measured after 24 hrs; type: functional, cell-based; settings: dose microM 10-50, time 10.0 min
RAW264.7 [5] = experiment: Antioxidant activity in mouse RAW264.7 cells assessed as reduction in ox-LDL induced oxidative stress by measuring increase in SOD level at 10 to 50 uM preincubated for 10 mins followed by ox-LDL stimulation and measured after 24 hrs; type: functional, cell-based; settings: dose microM 10-50, time 10.0 min
RAW264.7 [6] = experiment: Anti-inflammatory activity in mouse RAW264.7 cells assessed as decrease in ox-LDL induced inflammatory reaction by measuring decrease in TNF-alpha production at 10 to 50 uM preincubated for 10 mins followed by ox-LDL stimulation and measured after 24 hrs; type: functional, cell-based; settings: dose microM 10-50, time 10.0 min
RAW264.7 [7] = experiment: Anti-inflammatory activity in mouse RAW264.7 cells assessed as decrease in ox-LDL induced inflammatory reaction by measuring increase in IL-10 production at 10 to 50 uM preincubated for 10 mins followed by ox-LDL stimulation and measured after 24 hrs; type: functional, cell-based; settings: dose microM 10-50, time 10.0 min
RAW264.7 [8] = experiment: Inhibition of macrophage foam cell formation in mouse RAW264.7 cells assessed as reduction in ox-LDL induced red lipid droplets formation at 10 uM preincubated for 10 mins followed by ox-LDL stimulation and measured after 24 hrs by oil red O staining based inverted microscopy analysis; type: functional
[9] = Prodrug release in phosphate buffer containing L-cysteine assessed as H2S release by measuring H2S releasing half-life at 60 uM by methylene blue method; type: ADME
H9c2 = experiment: Cytotoxicity against rat H9c2 cells assessed as reduction in cell viability after 48 hrs by MTT assay; type: cell-based; settings: H9c2, 48 h
HUVEC [10] = experiment: Cytotoxicity against human HUVEC cells assessed as reduction in cell viability after 48 hrs by MTT assay; type: cell-based
RAW264.7 [11] = experiment: Cytotoxicity against mouse RAW264.7 cells assessed as reduction in cell viability after 48 hrs by MTT assay; type: cell-based; settings: RAW264.7, 48 h
WI-38 = experiment: Cytotoxicity against human WI38 cells assessed as reduction in cell viability after 48 hrs by MTT assay; type: cell-based; settings: WI-38, 48 h
HUVEC [12] = experiment: Cytoprotective activity against ox-LDL induced cell damage in human HUVEC cells assessed as increase in cell viability at 50 uM preincubated for 10 mins followed by ox-LDL stimulation measured after 24 hrs by MTT assay; type: functional, cell-based
HUVEC [13] = experiment: Cytotoxicity against human HUVEC cells assessed as reduction in cell viability at 10 to 100 uM by MTT assay; type: cell-based; settings: dose 10-100 µM
HUVEC [14] = experiment: Cytoprotective activity against ox-LDL induced cell damage in human HUVEC cells assessed as cell viability at 100 uM preincubated for 10 mins followed by ox-LDL stimulation measured after 24 hrs by MTT assay (reference value: 73.1%); type: functional; settings: read-out: Activity
HUVEC [15] = experiment: Anti-atherosclerotic activity against ox-LDL induced cell damage in human HUVEC cells assessed as reduction in nuclear pyknosis and apoptotic bodies formation preincubated for 10 mins followed by ox-LDL stimulation and measured after 24 hrs by Hoechst 33342 staining based fluorescence microscopy; type: functional
HUVEC [16] = experiment: Anti-atherosclerotic activity against ox-LDL induced cell damage in human HUVEC cells assessed as reduction in late apoptotic and death cells preincubated for 10 mins followed by ox-LDL stimulation and measured after 24 hrs by PI staining based fluorescence microscopic analysis; type: functional
HUVEC [17] = experiment: Anti-atherosclerotic activity against ox-LDL induced cell damage in human HUVEC cells assessed as reduction in early apoptotic cells by measuring increase in mitochondrial membrane potential preincubated for 10 mins followed by ox-LDL stimulation and measured after 24 hrs by JC-1 staining based fluorescence microscopic analysis; type: functional
RAW264.7 [18] = experiment: Antioxidant activity in mouse RAW264.7 cells assessed as reduction in ox-LDL-induced oxidative stress by measuring increase in SOD level at 50 uM preincubated for 10 mins followed by ox-LDL stimulation and measured after 24 hrs relative to control; type: functional; set-up: scale not given: the % may be the effect or the level left
HUVEC [19] = experiment: Anti-atherosclerotic activity against ox-LDL induced apoptosis in human HUVEC cells assessed as reduction in Bax expression at 10 to 50 uM preincubated for 10 mins followed by ox-LDL stimulation and measured after 24 hrs by ELISA; type: functional, cell-based; settings: dose microM 10-50, time 10.0 min
HUVEC [20] = experiment: Anti-atherosclerotic activity against ox-LDL induced apoptosis in human HUVEC cells assessed as reduction in caspase-3 expression at 10 to 50 uM preincubated for 10 mins followed by ox-LDL stimulation and measured after 24 hrs by ELISA; type: functional, cell-based; settings: dose microM 10-50, time 10.0 min
HUVEC [21] = experiment: Anti-atherosclerotic activity against ox-LDL induced apoptosis in human HUVEC cells assessed as increase in bcl-2 expression at 50 uM preincubated for 10 mins followed by ox-LDL stimulation and measured after 24 hrs by ELISA; type: functional
RAW264.7 [22] = experiment: Inhibition of macrophage foam cell formation in mouse RAW264.7 cells assessed as reduction in ox-LDL induced red lipid droplets formation preincubated for 10 mins followed by ox-LDL stimulation and measured after 24 hrs by oil red O staining based inverted microscopy analysis; type: functional; settings: dose microM 10-50, time 10.0 min
RAW264.7 [23] = experiment: Inhibition of macrophage foam cell formation in mouse RAW264.7 cells assessed as reduction in ox-LDL induced red lipid droplets formation at 50 uM preincubated for 10 mins followed by ox-LDL stimulation and measured after 24 hrs by oil red O staining based inverted microscopy analysis; type: functional
RAW264.7 [24] = experiment: Anti-atherosclerotic activity in mouse RAW264.7 cells assessed as decrease in ox-LDL induced intracellular lipid accumulation by measuring reduction in CE/TC ratio at 50 uM preincubated for 10 mins followed by ox-LDL stimulation and measured after 24 hrs by colorimetric method relative to control; type: functional; settings: RAW264.7, 10 min
RAW264.7 [25] = experiment: Antioxidant activity in mouse RAW264.7 cells assessed as reduction in ox-LDL induced ROS accumulation at 10 to 50 uM preincubated for 10 mins followed by ox-LDL stimulation and measured after 24 hrs by DCFH-DA staining based fluorescence microscopic analysis; type: functional, cell-based; settings: dose microM 10-50, time 10.0 min
RAW264.7 [26] = experiment: Antioxidant activity in mouse RAW264.7 cells assessed as reduction in ox-LDL induced oxidative stress by measuring decrease in MDA level at 50 uM preincubated for 10 mins followed by ox-LDL stimulation and measured after 24 hrs relative to control; type: functional; settings: RAW264.7, 10 min
RAW264.7 [27] = experiment: Anti-inflammatory activity in mouse RAW264.7 cells assessed as decrease in ox-LDL induced inflammatory reaction by measuring decrease in TNF-alpha production preincubated for 10 mins followed by ox-LDL stimulation and measured after 24 hrs; type: functional, cell-based; settings: dose microM 10-50, time 10.0 min
RAW264.7 [28] = experiment: Anti-inflammatory activity in mouse RAW264.7 cells assessed as decrease in ox-LDL induced inflammatory reaction by measuring increase in IL-10 production preincubated for 10 mins followed by ox-LDL stimulation and measured after 24 hrs; type: functional, cell-based; settings: dose microM 10-50, time 10.0 min
RAW264.7 [29] = experiment: Anti-atherosclerotic activity in mouse RAW264.7 cells assessed as decrease in ox-LDL induced PI3K protein expression at 10 to 50 uM preincubated for 10 mins followed by ox-LDL stimulation and measured after 24 hrs by Western blot analysis; type: functional, cell-based; settings: dose microM 10-50, time 10.0 min
RAW264.7 [30] = experiment: Anti-atherosclerotic activity in mouse RAW264.7 cells assessed as decrease in ox-LDL induced AKT protein expression at 10 to 50 uM preincubated for 10 mins followed by ox-LDL stimulation and measured after 24 hrs by Western blot analysis; type: functional, cell-based; settings: dose microM 10-50, time 10.0 min
RAW264.7 [31] = experiment: Anti-atherosclerotic activity in mouse RAW264.7 cells assessed as decrease in ox-LDL induced NFkappaB protein expression at 10 to 50 uM preincubated for 10 mins followed by ox-LDL stimulation and measured after 24 hrs by Western blot analysis; type: functional, cell-based; settings: dose microM 10-50, time 10.0 min
HUVEC [32] = experiment: Cytoprotective activity against ox-LDL induced cell damage in human HUVEC cells assessed as increase in cell viability at 50 to 100 uM preincubated for 10 mins followed by ox-LDL stimulation measured after 24 hrs by MTT assay; type: functional, cell-based; settings: dose microM 50-100, time 10.0 min

SMILES: CCOC(=O)C(C)(C)Oc1ccc(Cl)cc1
Activity (RAW264.7 [1]): Active
Activity (RAW264.7 [2]): Active
Activity (RAW264.7 [3]): inactive
Activity (RAW264.7 [4]): inactive
Activity (RAW264.7 [5]): inactive
Activity (RAW264.7 [6]): Active
Activity (RAW264.7 [7]): Active
inhibition (RAW264.7 [8]): Active

SMILES: Cc1ccc(NC(=S)OCCNC(=O)c2cccnc2)cc1
t1/2 [9]: 0.9 min
IC50 (H9c2): 726 µM
IC50 (HUVEC [10]): 567 µM
IC50 (RAW264.7 [11]): > 800 µM
IC50 (WI-38): > 800 µM

SMILES: O=C(CCCCC1CCSS1)OCCCOC(=O)c1cccnc1 (configuration not stated)
Activity (HUVEC [12]): Active
Activity (HUVEC [13]): Non-Toxic
t1/2 [9]: 15.3 min
IC50 (H9c2): > 800 µM
IC50 (HUVEC [10]): > 800 µM
IC50 (RAW264.7 [11]): > 800 µM
IC50 (WI-38): > 800 µM
viability at 100 µM (HUVEC [14]): 85.9%
Activity (HUVEC [15]): Active
Activity (HUVEC [16]): Active
Activity (HUVEC [17]): Active
Activity (RAW264.7 [18]): 48.3%
Activity (HUVEC [19]): Active
Activity (HUVEC [20]): Active
Activity (HUVEC [21]): 32.7%
inhibition (RAW264.7 [22]): Dose-dependent effect
inhibition (RAW264.7 [23]): Active
inhibition at 50 µM (RAW264.7 [24]): 32.4%
Activity (RAW264.7 [25]): Active
inhibition at 50 µM (RAW264.7 [26]): 47%
Activity (RAW264.7 [27]): Dose-dependent effect
Activity (RAW264.7 [28]): Dose-dependent effect
Activity (RAW264.7 [29]): Active
Activity (RAW264.7 [30]): Active
Activity (RAW264.7 [31]): Active
Activity (RAW264.7 [1]): Active
Activity (RAW264.7 [2]): Active

SMILES: CC(C)(Oc1ccc(Cl)cc1)C(=O)Oc1ccc(-c2cc(=S)ss2)cc1
t1/2 [9]: 4.2 min
IC50 (H9c2): 675 µM
IC50 (HUVEC [10]): 616 µM
IC50 (RAW264.7 [11]): > 800 µM
IC50 (WI-38): 764 µM

SMILES: O=C(NCCOC(=S)Nc1ccc(F)cc1)c1cccnc1
t1/2 [9]: 1.5 min
IC50 (H9c2): > 800 µM
IC50 (HUVEC [10]): 692 µM
IC50 (RAW264.7 [11]): > 800 µM
IC50 (WI-38): > 800 µM

SMILES: O=C(NCCOC(=S)Nc1ccc([N+](=O)[O-])cc1Cl)c1cccnc1
Activity (HUVEC [32]): Active
Activity (HUVEC [13]): Non-Toxic
t1/2 [9]: 2.1 min
IC50 (H9c2): > 800 µM
IC50 (HUVEC [10]): 701 µM
IC50 (RAW264.7 [11]): > 800 µM
IC50 (WI-38): > 800 µM

Second part, led by results:

t1/2 [9]: 1.4 min
SMILES: CC(C)(Oc1ccc(Cl)cc1)C(=O)NCCOC(=S)Nc1ccccc1
IC50 (H9c2): > 800 µM
IC50 (HUVEC [10]): 791 µM
IC50 (RAW264.7 [11]): > 800 µM
IC50 (WI-38): > 800 µM

t1/2 [9]: 1.2 min
SMILES: CC(C)(Oc1ccc(Cl)cc1)C(=O)NCCOC(=S)Nc1ccc(F)cc1
IC50 (H9c2): > 800 µM
IC50 (HUVEC [10]): 773 µM
IC50 (RAW264.7 [11]): > 800 µM
IC50 (WI-38): > 800 µM

t1/2 [9]: 0.9 min
SMILES: COc1ccc(NC(=S)OCCNC(=O)C(C)(C)Oc2ccc(Cl)cc2)cc1
IC50 (H9c2): 747 µM
IC50 (HUVEC [10]): 616 µM
IC50 (RAW264.7 [11]): > 800 µM
IC50 (WI-38): 780 µM
